This assay relates to MALME-3M multicell spheroids, viability. Briefly: Anticancer human tumor MALME-3M cell line growth inhibition [TAK].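 As to all read-outs here: spheroids exposed to drugs for seven days before readout.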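 As to viability, T/C: 100% = DMSO vehicle control viability.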 The note with it: for viability, T/C: stronger effect = lower value. The essentials:
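Spheroids of 60% malignant cells, 25% HUVEC and 15% hMSC were exposed to targeted agents combined with TAK-243 or ipatasertib. Concentrations started at or near clinical Cmax (10 microM if unknown) and descended in half-log steps.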

The mark [1] stands for this setting: curve of first compound, second compound 0.3 µM.
Where [2] appears, read: curve of first compound, second compound 0.949 µM.
Setting [3] is: curve of first compound, second compound 3 µM.
Setting [4] is: curve of first compound, second compound 9.49 µM.
Setting [5] is: curve of first compound, second compound 30 µM.
The mark [6] stands for this setting: second compound 0.3 µM, first compound 0.000316 µM.
Setting [7] is: second compound 0.3 µM, first compound 0.001 µM.
The mark [8] stands for this setting: second compound 0.3 µM, first compound 0.00316 µM.
[9] abbreviates: second compound 0.3 µM, first compound 0.01 µM.
[10] abbreviates: second compound 0.3 µM, first compound 0.0316 µM.
The mark [11] stands for this setting: second compound 0.3 µM, first compound 0.1 µM.
[12] abbreviates: second compound 0.949 µM, first compound 0.000316 µM.
Where [13] appears, read: second compound 0.949 µM, first compound 0.001 µM.
Where [14] appears, read: second compound 0.949 µM, first compound 0.00316 µM.
Where [15] appears, read: second compound 0.949 µM, first compound 0.01 µM.
Where [16] appears, read: second compound 0.949 µM, first compound 0.0316 µM.
Setting [17] is: second compound 0.949 µM, first compound 0.1 µM.
The mark [18] stands for this setting: second compound 3 µM, first compound 0.000316 µM.
The mark [19] stands for this setting: second compound 3 µM, first compound 0.001 µM.
The mark [20] stands for this setting: second compound 3 µM, first compound 0.00316 µM.
Where [21] appears, read: second compound 3 µM, first compound 0.01 µM.
[22] abbreviates: second compound 3 µM, first compound 0.0316 µM.
Where [23] appears, read: second compound 3 µM, first compound 0.1 µM.
Setting [24] is: second compound 9.49 µM, first compound 0.000316 µM.
The mark [25] stands for this setting: second compound 9.49 µM, first compound 0.001 µM.
[26] abbreviates: second compound 9.49 µM, first compound 0.00316 µM.
[27] abbreviates: second compound 9.49 µM, first compound 0.01 µM.
[28] abbreviates: second compound 9.49 µM, first compound 0.0316 µM.
[29] abbreviates: second compound 9.49 µM, first compound 0.1 µM.
Setting [30] is: second compound 30 µM, first compound 0.000316 µM.
[31] abbreviates: second compound 30 µM, first compound 0.001 µM.
The mark [32] stands for this setting: second compound 30 µM, first compound 0.00316 µM.
Setting [33] is: second compound 30 µM, first compound 0.01 µM.
The mark [34] stands for this setting: second compound 30 µM, first compound 0.0316 µM.
Setting [35] is: second compound 30 µM, first compound 0.1 µM.

Several values for one entry are separate records, joined by “and”; a condition that tells them apart may be missing. Identical values can stand only once.

Consider `COC1CC2CCC(C)C(O)(O2)C(=O)C(=O)N2CCCCC2C(=O)OC(C(C)CC2CCC(OCCO)C(OC)C2)CC(=O)C(C)C=C(C)C(O)C(OC)C(=O)C(C)CC(C)C=CC=CC=C1C` (stereo not drawn) + CC(C)NCC(C(=O)N1CCN(c2ncnc3c2C(C)CC3O)CC1)c1ccc(Cl)cc1, for which the half-inhibitory concentration (IC50) (commonly the concentration that inhibits the measured activity by half) is, setting by setting: under setting [1], more than 100 nM; under setting [2], 8.97 nM; under setting [3], 1.51 nM; under setting [4], 0.42 nM; under setting [5], less than 0.316 nM. Moreover, the viability, T/C (usually the ratio of treated to control) is 87.7% under setting [6]; 69.2% under setting [7]; 64.3% under setting [8]; 55.7% under setting [9]; 53.8% under setting [10]; 51.3% under setting [11]. Besides, the viability, T/C under setting [12] was 89.9%; the viability, T/C under setting [13] was 71.5%; the viability, T/C under setting [14] was 49.9%; the viability, T/C under setting [15] was 51.8%; the viability, T/C under setting [16] was 50%; the viability, T/C under setting [17] is 42.4%. Besides, the viability, T/C is 70.5% under setting [18]; 55.4% under setting [19]; 40.7% under setting [20]; 32.1% under setting [21]; 38% under setting [22]; 29.5% under setting [23]. For the same compound, the viability, T/C was 54.4% under setting [24]; 37.1% under setting [25]; 26% under setting [26]; 26.4% under setting [27]; 23.6% under setting [28]; 21.8% under setting [29]. For the same compound, the viability, T/C was 36.2% under setting [30]; 32.8% under setting [31]; 20.7% under setting [32]; 22.1% under setting [33]; 19.9% under setting [34]; 19.1% under setting [35].

Consider `CC(C)n1nc(-c2ccc3oc(N)nc3c2)c2c(N)ncnc21` + CC(C)NCC(C(=O)N1CCN(c2ncnc3c2C(C)CC3O)CC1)c1ccc(Cl)cc1, for which the half-maximal inhibitory concentration (IC50) is 12.1 nM under setting [1]; 7.82 nM under setting [2]; 5.3 nM under setting [3]; 1.81 nM under setting [4]; less than 0.316 nM under setting [5]. In addition, the viability, T/C is 87.8% under setting [6]; 76.1% under setting [7]; 69.3% under setting [8]; 55.7% under setting [9]; 31.3% under setting [10]; 11.2% under setting [11]. Moreover, the viability, T/C is 81.6% under setting [12]; 74.7% under setting [13]; 65.6% under setting [14]; 46.6% under setting [15]; 23.1% under setting [16]; 10% under setting [17]. Also, the viability, T/C is, setting by setting: under setting [18], 67.6%; under setting [19], 61.1%; under setting [20], 52.4%; under setting [21], 45.8%; under setting [22], 14.5%; under setting [23], 6.89%. The viability, T/C is 62% under setting [24]; 56.7% under setting [25]; 43.7% under setting [26]; 22.5% under setting [27]; 9.06% under setting [28]; 4.23% under setting [29]. Further, the viability, T/C was 36.5% under setting [30]; 37.5% under setting [31]; 28.6% under setting [32]; 17.2% under setting [33]; 8.52% under setting [34]; 4.01% under setting [35].

With `COc1c(OCCCN2CCOCC2)ccc2c3n(c(=NC(=O)c4cnc(N)nc4)nc12)CCN3`, the viability, T/C by setting is: (compound 0.00316 µM) 92.7% and 95.3%; (compound 0.01 µM) 71.3% and 85.2%; (compound 0.0316 µM) 70.3% and 76.1%; (compound 0.1 µM) 51.1% and 48.3%; (compound 0.316 µM) 19% and 21.5%; (compound 1 µM) 8.97% and 8.52%. Also, the IC50 (curve of compound) is 84 nM and 92.9 nM.

As for `CC(C)(C)c1nc(-c2cccc(NS(=O)(=O)c3c(F)cccc3F)c2F)c(-c2ccnc(N)n2)s1`, the viability, T/C runs as follows: (compound 0.0316 µM) 21.4% and 24.8%; (compound 0.1 µM) 22.8% and 21.5%; (compound 0.316 µM) 20.7% and 21.4%; (compound 1 µM) 22.4% and 21.4%; (compound 3.16 µM) 21.2% and 23.6%; (compound 10 µM) 29.8% and 27.6%. Besides, the IC50 (curve of compound) was less than 31.6 nM.

Take `CC(C)CC(NC(=O)C(Cc1ccccc1)NC(=O)c1cnccn1)B(O)O` (stereo not drawn): the viability, T/C by setting is: (compound 31.6 pM) 105% and 95.5%; (compound 0.0001 µM) 97.5% and 87.7%; (compound 0.000316 µM) 98.5% and 86.3%; (compound 0.001 µM) 97.5% and 70.5%; (compound 0.00316 µM) 25.8% and 18.3%; (compound 0.01 µM) 0.68% and 0.19%. The IC50 (curve of compound) is 2.14 nM and 1.56 nM.

`CC(C)n1nc(-c2ccc3oc(N)nc3c2)c2c(N)ncnc21`: the viability, T/C runs as follows: (compound 0.000316 µM) 78.4% and 94.5%; (compound 0.001 µM) 64.4% and 88.7%; (compound 0.00316 µM) 63% and 77.5%; (compound 0.01 µM) 47.5% and 70.1%; (compound 0.0316 µM) 28.3% and 33%; (compound 0.1 µM) 10.5% and 13.6%. The IC50 (curve of compound) is 7.44 nM and 18.1 nM.

Regarding `CC(=O)Nc1cccc(-n2c(=O)n(C3CC3)c(=O)c3c(Nc4ccc(I)cc4F)n(C)c(=O)c(C)c32)c1`, the viability, T/C (compound 94.9 pM) is 92.9% and 86.3%; the viability, T/C (compound 0.0003 µM) is 48.6% and 49.9%; the viability, T/C (compound 0.000949 µM) is 20.2% and 18.5%; the viability, T/C (compound 0.003 µM) is 15.9% and 15.3%; the viability, T/C (compound 0.00949 µM) is 9.62% and 9.1%; the viability, T/C (compound 0.03 µM) was 5.56% and 5.65%. Besides, the 50% inhibitory concentration (IC50) (curve of compound) is 0.284 nM and 0.293 nM.

Turning to `CC(C)NCC(C(=O)N1CCN(c2ncnc3c2C(C)CC3O)CC1)c1ccc(Cl)cc1` (stereo not drawn), the viability, T/C was 76% [middle of 10 runs] (compound 9.49 µM) and 50.4% [middle of 10 runs] (compound 30 µM). The IC50 (compound alone, run of 02/20/2020) was > 30000 nM and 23200 nM and 14800 nM.

The record behind these values is PubChem BioAssay AID2060345 (Molecular Pharmacology Branch, DTP, NCI, 2025).
